Measured values as given in US5110810A, “Method of using dehydroepiandrosterone and dehydroepiandrosterone-sulfate as inhibitors of platelet aggregation” (Virginia Commonwealth University, priority 1991, dated 1992).
Like-named read-outs stand apart in the source and are kept apart here.

Legend:
[1] = test system: platelets; conditions: cited from earlier work
[2] = test system: Thromboxane A2 (TxA2) synthesis, measured as Thromboxane B2 (TxB2); test: Thromboxane production (TxB2 RIA) in platelet rich plasma after arachidonic acid; format: cell-based, human; conditions: for TxB2 produced: approximately three minutes incubation
Description: As discussed above, activation of platelets by arachidonic acid typically results in the generation of Thromboxane A2 (TxA2) The extent of TxA2 generated can be measured by radioimmunoassay (RIA) of its stable breakdown product Thromboxane B2 (TxB2) (see, JW Aiken, "Arachidonic Acid Metabolism and the Cardiovascular System" in Platelets and Prostaglandins in Cardiovascular Disease, J Mehta, P Mehta eds. Futura Publishing Co., Mt. Kisco, NY 1981). […] The platelet aggregation reaction was terminated at maximal aggregation or at four minutes, which ever occurred […], by the addition of 10 μM Indomethacin and 5.0 mM ethylenediaminetetraacetic acid (EDTA). Indomethacin and EDTA are commercially available reagents and were obtained from the Sigma Chemical Company. After adding the Indomethacin and EDTA reagents, the cuvettes containing the test sample were immediately placed on ice to cool. The test samples were then spun at a high speed in an Epindorf, Model 5415 micro-centrifuge, available from Brinkman Instruments, to sediment the platelets. Afterwards, plasma was removed from each sample. The TXB2 content was then assayed using commercial RIA kits available from Advanced Magnetics, Inc. of Massachussetts.

[3] = test system: glucose-6-phosphate dehydrogenase; conditions: cited from earlier work
[4] = test system: intracellular sulfatases; conditions: through the action of intracellular sulfatases; cited from earlier work
[5] = Serum DHEA and DHEA-S levels by radio-immunoassay (RIA), oral DHEA in normal male volunteers; format: in vivo; conditions: human, 300 mg/day, DHEA group, 300 mg per day orally (100 mg three times a day), second week, read-out: mean serum DHEA level
Procedure: In vivo experimentation has been conducted with DHEA using a test group of ten male human being subjects. The in vivo experimentation comprised a double blind placebo controlled trial where ten normal male volunteers whose ages ranged between 22 and 37 years old were randomly divided into two five membered groups where the average age for each group was 25 years. In the in vivo experiment, the DHEA group received 300 mg of DHEA per day in the form of 100 mg capsules taken orally three times a day. The placebo group took placebo capsules which looked identical to the capsules containing DHEA three times a day. The DHEA and placebo capsules were prepared by the investigational pharmacy at the Medical College of Virginia and the code identifying which patients took DHEA and which took placebo was maintained by the pharmacy until the study was completed such that neither the patients nor the investigators were aware of who was taking DHEA or placebo. Each of the participants in the trial were told not to alter their lifestyles for the duration of the study and at the conclusion of the experiment each participant said that they had not done so. […]
Serum DHEA and DHEA-S levels for the patients was determined before the experiment began and at several later times during the experiment. […]

[6] = test system: oxidant injury in isolated rabbit lungs; conditions: cited from earlier work
[7] = human patients; cited from earlier work
[8] = test system: blood platelets; test: Arachidonic acid induced platelet aggregation (turbidimetric) in volunteers taking DHEA; format: in vivo, human
Description: (§1) Referring now to the drawings and, more particularly to FIG. 1, two sample aggregometer tracings are shown which help illustrate the methods used by the inventors to analyze turbidimetric data. Aggregometers are well known research tools and the aggregometer used in the experiments discussed below was a Sienco dual chamber platelet aggregometer. A blood sample which is to be analyzed is drawn from volunteer donors into a 1/8 volume of acid-citrate-dextrose (an anticoagulant used to keep platelets from aggregation during preparative stages). For the in vitro experiments discussed below, the volunteer donors had not taken any medication for ten days prior to submitting the blood sample. The blood is then centrifuged at low speed to sediment red and white blood cells, leaving a fraction enriched in platelets called platelet-rich plasma (PRP). The platelet count was determined electronically using a Coulter counter The final concentration of platelets for a test sample was adjusted to 250,000 platelets/μL fluid by the addition of platelet-poor plasma.
(§2) The aggregometer acts essentially like a spectrophotometer to measure the turbidity of the platelet suspension as a function of the change in light transmission recorded over time. Prior to making turbidimetric measurements, the test samples were heated to 37° C. (body temperature) and stirred at a constant rate. Inhibitors and/or agonists are added to the test sample in very small quantities so as to minimize the dilutional effect. An important object of the present invention was showing that DHEA and DHEA-S are inhibitors of platelet aggregation. Arachidonic acid, available from Biodata Corp of Hatboro, Pennsylvania, is a well known agonist of platelets (i.e., the addition of arachidonic acid to platelets causes aggregation). In the experiments, DHEA and DHEA-S were added to the test sample prior to adding the arachidonic acid so that the platelets could be mixed with the inhibitor before any aggregation initiation caused by the arachidonic acid agonist occurred. Typically, 0.2-0.4 mM arachidonic acid was used to start platelet aggregation.
The aggregometer was calibrated such that the test samples, which contained 250,000 platelets/μl fluid, allowed 0% light transmission while Platelet Poor Plasma, which is essentially devoid of platelets, allowed 100% light transmission. […]
The overall rate of aggregation is determined in part by the LAG time and in part by the rate of the rapid aggregation phase. While the LAG time can easily be determined from the turbidimetric spectra, the rate of rapid aggregation phase is technically difficult to measure. […] Therefore, the experiments discussed below have primarily utilized the T1/2MAX measurement to quantitatively analyze the affect of DHEA and DHEA-S as platelet aggregation inhibitors. […]

[9] = test system: atherosclerotic plaque; conditions: 2% cholesterol diet, balloon abrasion, 0.5% DHEA, cited from earlier work
[10] = test system: aortic fatty streaks; conditions: 0.5% cholesterol and 0.5% DHEA diet; two months; cited from earlier work
[11] = test system: platelets; test: In vitro turbidimetric arachidonic acid induced platelet aggregation in platelet rich plasma; format: cell-based, human
Description: as §1, §2
The aggregometer was calibrated such that the test samples, which contained 250,000 platelets/μl fluid, allowed 0% light transmission while Platelet Poor Plasma, which is essentially devoid of platelets, allowed 100% light transmission. […] The time to the nadir in the aggregometer tracing is called the "LAG" time. After the LAG time has passed, the platelets undergo a rapid phase of aggregation.
The overall rate of aggregation is determined in part by the LAG time and in part by the rate of the rapid aggregation phase. While the LAG time can easily be determined from the turbidimetric spectra, the rate of rapid aggregation phase is technically difficult to measure. […] Therefore, the experiments discussed below have primarily utilized the T1/2MAX measurement to quantitatively analyze the affect of DHEA and DHEA-S as platelet aggregation inhibitors.
DHEA-S is available from the Sigma Chemical Company in powder form. In the in vitro experiments, blood samples were taken from several young healthy donors taking no medications. Platelet rich plasma was prepared as described above for each test sample and the concentration of platelets in the test samples was adjusted to 250,000 platelets/μl fluid. Aggregation of the platelets in the test samples was initiated with 0.2 to 0.4 […] of arachidonic acid (there was a variability in the amount of arachidonic acid used among donors; however, the amount used was near the minimum that would consistently initiate aggregation). In all aggregation experiments 0.3 cc of platelet rich plasma was used and the test sample volume placed in the aggregometer ranged between 10 μl to 30 μl.
In the first in vitro experiment, different concentrations of DHEA-S were added to test samples and the rate of aggregation was monitored after the addition of arachidonic acid. […]

[12] = test system: cardiovascular disease mortality; conditions: increase in (endogenous) DHEA-S level of 100 μg/dL; adjusted for other risk factors; p <0.05; cited from earlier work
[13] = test system: myocardial infarction; conditions: large clinical studies; cited from earlier work
[14] = test system: platelets; conditions: cited from earlier work; remark: listed apart in the source

## O=[N+]([O-])c1cc(Cl)cc([N+](=O)[O-])c1 [CDNB, 1-chloro-3,5-dinitrobenzene]
[1]
  GSH content of platelets: chemically depletes GSH
  HMPS pathway stimulation by GSH-depleted platelets: do not stimulate the HMPS pathway
  cytoskeletal protein polymerization of GSH-depleted platelets: faster cytoskeletal protein oxidative polymerization but reversible aggregation
  sensitivity of GSH-depleted platelets to oxidants: more sensitive to oxidants
[1]; higher inducer concentrations
  aggregation of GSH-depleted platelets: aggregate normally
[1]; low inducer concentrations, depending on the inducer
  aggregation of GSH-depleted platelets: increased or depressed aggregation

## C[C@]12CC[C@H](O)CC1=CC[C@@H]1[C@@H]2CC[C@]2(C)C(=O)CC[C@@H]12 [DHEA, dehydroepiandrosterone]
[2]; 3.3 μM DHEA
  TxB2 produced: 46.0 ± 4.0 pg/mL
[2]; 6.7 μM DHEA
  TxB2 produced: 27.3 ± 1.1 pg/mL
[2]; 10.0 μM DHEA
  TxB2 produced: 21.8 ± 1.8 pg/mL
[2]; increasing concentrations of DHEA (FIG. 7)
  TxB2 produced vs concentration: proportional decline in TxB2 produced
[2]; presence of added DHEA (FIG. 7)
  TxA2 synthesis: net inhibition of TxA2 synthesis
[3]
  inhibition of glucose-6-phosphate dehydrogenase: specific inhibitor
[4]
  interconversion of DHEA with its sulfate ester: readily interconvertible
[5]
  concentration at 336 h: 28.7 ± 13.9 ng/mL
[6]
  thromboxane B2 production: unchanged
[6]; platelets pretreated with DHEA
  lung edema and pulmonary hypertension: augmentation of the lung edema and pulmonary hypertension
[7]
  HDL cholesterol levels: without affecting HDL cholesterol levels
  LDL cholesterol levels: lower LDL cholesterol levels
  body fat mass: reduce body fat mass
  muscle mass: increase muscle mass
  serum apilipoprotein B levels: lower serum apilipoprotein B levels
  tissue sensitivity to insulin: not affect tissue sensitivity to insulin
[8]; 300 mg DHEA per day orally
  aggregation response, fifth DHEA patient: no change
  arachidonic acid induced platelet aggregation, one of the four responding subjects: completely inhibited
  patients who developed a delay in the rate of aggregation or an increase in the minimal concentration of arachidonic acid required to initiate aggregation: four of the five patients
[8]; one DHEA treated patient, second week vs baseline (FIG. 3)
  T1/2MAX and LAG curves vs arachidonic acid concentration: shifted to the right and upward
[9]
  individual reduction of plaque size vs serum level of DHEA: inversely proportional to the serum level of DHEA attained
[9]; vs rabbits not receiving DHEA
  reduction in plaque size: 50%
[10]
  reduction in fatty streak formation, chemical analysis: 30%
  reduction in fatty streak formation, planimetry of the lesions: 40%
[11]; 3.3 μM, pre-incubation 0 to 5.0 minutes (FIG. 6)
  platelet aggregation on pre-incubation: prolong and eventually inhibit platelet aggregation

## CC12CCC3C(CC=C4CC(OS(=O)(=O)O)CCC43C)C1CCC2=O (stereo not drawn) [DHEA-S, dehydroepiandrosterone-sulfate]
[2]; treatment of blood with DHEA-S
  thromboxane production: reduce thromboxane production
[12]
  reduction in mortality from cardiovascular disease: 48%
[11]; 3.3 μM DHEA-S (FIG. 5)
  T1/2MAX and LAG vs pre-incubation time: the greater the increase in T1/2MAX and LAG times
[11]; 3.3 μM DHEA-S, 0 time pre-incubation (FIG. 5)
  T1/2MAX and LAG vs baseline: did increase the T1/2MAX and LAG from baseline
[11]; 3.3 μM DHEA-S, 5.0 minutes, in most cases (FIG. 6)
  aggregation after 5.0 minute pre-incubation: complete inhibition of aggregation
[11]; 10.0 μM DHEA-S, three minutes incubation
  time for T1/2MAX and LAG: not determinable
[11]; incubated three minutes before arachidonic acid, most test samples
  platelet aggregation response to increasing DHEA-S concentration: dose dependent response
[11]; three minutes incubation (FIG. 4)
  T1/2MAX and LAG times with increasing concentrations: increase with increasing concentrations of DHEA-S

## CC(=O)Oc1ccccc1C(=O)O [aspirin]
[13]
  incidence of myocardial infarction: reduce the incidence of myocardial infarction
[14]
  initial platelet adhesion: does not inhibit initial platelet adhesion
  platelet's role in atherogenesis: does not appear to have an affect
